Values quoted from earlier work, collected in US5977169A, “Substituted tetronic acids useful for treating HIV and other retroviruses” (priority 1997, dated 1999).
Square brackets hold non-standard residues; d marks the D form. Peptide text beside a SMILES is read from it. * marks the point of attachment. Sta = CC(C)C[C@H](N)[C@@H](O)CC(=O)O; Isovaleryl = CC(C)CC(=O)*

Tested on: HIV-I protease
Settings: literature; cited from earlier work

CC(C)CC(=O)N[C@H](C(=O)N[C@H](C(=O)N[C@@H](CC(C)C)[C@@H](O)CC(=O)N[C@@H](C)C(=O)N[C@@H](CC(C)C)[C@@H](O)CC(=O)O)C(C)C)C(C)C [Pepstatin A] (Isovaleryl-VV[Sta]A[Sta]-OH)
inhibition of HIV-I protease: disclosed as an inhibitor of HIV-I protease
